From paper PMC12310023 (PLOS Neglected Tropical Diseases, 2025)
Where two headings read alike, the source gives them in different places.

How the values were obtained:
[1] = molecular target: T1, CYP1A2 (Homo sapiens, UniProt P05177); assay: in vitro; conditions: recombinant CYP1A2 supersomes
T1 sequence (P05177 1-516): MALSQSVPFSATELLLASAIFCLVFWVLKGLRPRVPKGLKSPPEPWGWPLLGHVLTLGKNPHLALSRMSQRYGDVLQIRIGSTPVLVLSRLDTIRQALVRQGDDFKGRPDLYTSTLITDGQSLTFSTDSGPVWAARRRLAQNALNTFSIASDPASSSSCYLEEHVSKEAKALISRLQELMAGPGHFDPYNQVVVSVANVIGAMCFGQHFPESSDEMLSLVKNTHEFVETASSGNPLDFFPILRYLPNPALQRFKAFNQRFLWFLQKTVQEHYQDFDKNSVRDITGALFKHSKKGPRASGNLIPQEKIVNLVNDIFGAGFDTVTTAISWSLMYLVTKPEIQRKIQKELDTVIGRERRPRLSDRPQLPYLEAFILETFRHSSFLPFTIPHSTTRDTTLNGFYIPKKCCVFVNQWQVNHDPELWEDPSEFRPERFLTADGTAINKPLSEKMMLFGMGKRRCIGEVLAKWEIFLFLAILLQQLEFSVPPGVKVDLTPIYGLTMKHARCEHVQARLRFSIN

[2] = system: micronuclei in interphase cells; assay: In vitro micronucleus (IVMN) test
[3] = molecular target: T2, PPARУ (Homo sapiens, UniProt P37231); assay: Cerep cellular and nuclear receptor functional assay; assay type: cell-based
T2 construct: Cerep (Eurofins, France)
T2 sequence (P37231 1-505): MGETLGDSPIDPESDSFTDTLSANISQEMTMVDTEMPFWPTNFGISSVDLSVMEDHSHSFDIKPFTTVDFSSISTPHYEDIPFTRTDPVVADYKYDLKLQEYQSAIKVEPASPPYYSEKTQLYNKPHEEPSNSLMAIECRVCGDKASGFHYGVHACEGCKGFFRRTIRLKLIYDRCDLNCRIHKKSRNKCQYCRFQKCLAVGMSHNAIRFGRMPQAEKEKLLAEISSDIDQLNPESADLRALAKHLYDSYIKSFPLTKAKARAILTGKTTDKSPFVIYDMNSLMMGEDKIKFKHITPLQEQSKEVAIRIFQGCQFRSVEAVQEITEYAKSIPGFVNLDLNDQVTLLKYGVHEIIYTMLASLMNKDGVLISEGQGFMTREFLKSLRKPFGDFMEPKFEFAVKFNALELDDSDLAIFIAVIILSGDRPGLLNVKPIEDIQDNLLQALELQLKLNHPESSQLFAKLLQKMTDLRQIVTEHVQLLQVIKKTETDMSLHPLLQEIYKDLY

[4] = system: NLuc C. parvum (Calibr); assay: Calibr panel, UA Nanoluc C. parvum count; assay type: cell-based; conditions: Cryptosporidium parvum
[5] = molecular target: CYP3A4 (Homo sapiens, UniProt P08684); assay: biochemical
[6] = Plasma levels in IFNγ-KO mouse efficacy model
[7] = molecular target: T3, A3 (Homo sapiens, UniProt P0DMS8); assay: Cerep binding assay; design: Cerep (Eurofins, France); conditions: agonist radioligand, mean, read-out: % inhibition of control specific binding
T3 sequence (P0DMS8 1-318): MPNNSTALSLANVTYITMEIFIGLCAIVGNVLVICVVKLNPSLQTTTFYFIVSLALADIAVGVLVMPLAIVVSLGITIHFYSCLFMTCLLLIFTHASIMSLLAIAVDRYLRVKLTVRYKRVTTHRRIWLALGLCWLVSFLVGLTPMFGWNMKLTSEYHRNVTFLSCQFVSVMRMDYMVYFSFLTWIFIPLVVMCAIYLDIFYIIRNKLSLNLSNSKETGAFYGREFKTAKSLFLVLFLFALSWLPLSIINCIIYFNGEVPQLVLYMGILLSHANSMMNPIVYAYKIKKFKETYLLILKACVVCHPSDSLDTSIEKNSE

[8] = molecular target: T4, CYP2B6 (Homo sapiens, UniProt P20813); assay: in vitro; conditions: recombinant CYP2B6 supersomes
T4 sequence (P20813 1-491): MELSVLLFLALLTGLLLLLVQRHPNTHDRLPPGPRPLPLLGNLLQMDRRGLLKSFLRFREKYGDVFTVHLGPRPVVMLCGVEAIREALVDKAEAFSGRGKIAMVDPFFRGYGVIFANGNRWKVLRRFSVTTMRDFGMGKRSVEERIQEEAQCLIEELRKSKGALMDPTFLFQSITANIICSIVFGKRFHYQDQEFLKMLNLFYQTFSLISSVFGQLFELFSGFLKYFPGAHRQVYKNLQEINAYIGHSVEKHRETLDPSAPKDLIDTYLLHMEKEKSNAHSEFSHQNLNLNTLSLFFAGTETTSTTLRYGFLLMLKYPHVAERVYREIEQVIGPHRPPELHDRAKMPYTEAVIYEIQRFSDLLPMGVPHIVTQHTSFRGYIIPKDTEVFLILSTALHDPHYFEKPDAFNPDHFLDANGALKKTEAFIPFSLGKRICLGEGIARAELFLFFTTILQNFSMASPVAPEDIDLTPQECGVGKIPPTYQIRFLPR

[9] = Mouse plasma, brain and GI exposure PK, Balb/c, 30 mg/kg PO; conditions: 6 h, after BKI-1708
[10] = molecular target: T1, CYP1A2; assay: CYP reaction phenotyping, recombinant supersomes
[11] = Hepatocyte stability; conditions: dog
[12] = Hepatocyte stability; conditions: human
[13] = molecular target: T5, PPARγ (Homo sapiens, UniProt P37231); assay: Cerep binding assay; conditions: agonist radioligand, mean
T5 construct: Cerep (Eurofins, France)

[14] = liver microsomes and primary hepatocytes

Sequence of CYP3A4 (P08684 whole entry): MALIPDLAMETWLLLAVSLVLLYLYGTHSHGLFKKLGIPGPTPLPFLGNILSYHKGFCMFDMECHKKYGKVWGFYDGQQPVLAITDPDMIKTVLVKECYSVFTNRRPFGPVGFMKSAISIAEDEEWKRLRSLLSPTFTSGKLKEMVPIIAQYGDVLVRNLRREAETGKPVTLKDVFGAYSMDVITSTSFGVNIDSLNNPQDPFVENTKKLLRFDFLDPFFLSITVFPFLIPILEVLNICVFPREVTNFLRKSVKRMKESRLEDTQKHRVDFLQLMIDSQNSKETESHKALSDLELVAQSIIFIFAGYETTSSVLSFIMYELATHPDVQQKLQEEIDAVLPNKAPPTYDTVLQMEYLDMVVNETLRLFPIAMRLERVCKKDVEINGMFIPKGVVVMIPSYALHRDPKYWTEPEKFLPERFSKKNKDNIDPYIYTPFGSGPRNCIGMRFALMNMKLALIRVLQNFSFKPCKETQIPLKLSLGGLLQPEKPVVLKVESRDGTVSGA

Question: Which results are given for `CC1(C)Cn2nc(-c3ccc4cc(OC5CC5)ccc4c3)c(C(N)=O)c2NC1O` (stereo not shown) [M2]?
Answer: CLint scaled [1]: 2.78 mL/min/kg; half-life [1]: 1 h; IVMN test result [2]: negative; agonist effect [3]: no effect up to 100 μM; IC50 ([3]; read-out: IC50, antagonist effect): > 100000 nM; EC50 ([4]; Replicate 1, read-out: UA Nanoluc C. parvum Count EC50): 468 nM; EC90 ([4]; Replicate 1, read-out: UA Nanoluc C. parvum Count EC90): 1460 nM; EC50 ([4]; Replicate 2, read-out: UA Nanoluc C. parvum Count EC50): 212 nM; EC90 ([4]; Replicate 2, read-out: UA Nanoluc C. parvum Count EC90): 1010 nM; EC50 ([4]; read-out: EC50): 340 nM; EC90 ([4]; read-out: EC90): 1240 nM; IC50 [5]: > 40000 nM; peak plasma exposure ([6]; M2 8 mg/kg x 3 days): 3.0 ± 1.0 µM; peak plasma level ([6]; M2 15 mg/kg x 3 days): 6.8 ± 1.2 µM; peak plasma level ([6]; M2 30 mg/kg x 3 days): 7.7 ± 3.6 µM; inhibition at 10 µM [7]: 72.6%; CLint scaled [8]: 0.35 mL/min/kg; half-life [8]: 2.65 h; M2 peak level in jejunum, ileum, cecum/colon [9]: > 1 µM; % contribution [10]: 47.0%; CLint [10]: 0.115 µL/min/pmol; LM:hepatocyte CLint_scaled ratio [11, 14]: <2.5; CLint scaled ([11]; primary hepatocytes): 13.3 mL/min/kg; half-life ([11]; primary hepatocytes): 6.85 h; hepatocyte CLint ([11]; primary hepatocytes): 3.4 µL/min/1e6 cells; LM:hepatocyte CLint_scaled ratio [12, 14]: <2.5; CLint scaled ([12]; primary hepatocytes): 10 mL/min/kg; half-life ([12]; primary hepatocytes): 6.27 h; hepatocyte CLint ([12]; primary hepatocytes): 3.7 µL/min/1e6 cells; % inhibition of control specific binding ([13]; 10 μM): 70.1%; inhibition at 10 µM ([13]; read-out: % inhibition of control specific binding): 70%
